From the NIST ThermoML archive (doi:10.1016/j.tca.2007.02.022)
Values joined by “and” are separate entries in the source; they are usually repeats but may differ in a detail not shown here. Identical values can stand only once. ± gives the expanded uncertainty stated by the source.

Columns and labels:
[1] = Molar enthalpy of transition or fusion; settings: Crystal
[2] = Crystal
[3] = molar heat capacity at constant pressure; settings: 101.33 kPa

OC[C@@H](O)[C@H](O)[C@@H](O)CO [xylitol]
Settings | Molar enthalpy of transition or fusion | Triple point temperature
[1] | 8.05 kcal/mol and 7.95 kcal/mol | –
[2] | – | 367.52 ± 5 K and 369.06 ± 0.5 K

[3]
Settings | molar heat capacity at constant pressure [J/K/mol]
80 K, Crystal | 63.67 ± 1.7
80.07 K, Crystal | 62.71 ± 1.6
83.61 K, Crystal | 65.01 ± 1.7
85 K, Crystal | 66.43 ± 1.7
86.53 K, Crystal | 67.25 ± 1.8
89.49 K, Crystal | 69.29 ± 1.8
90 K, Crystal | 69.62 ± 2.7
92.49 K, Crystal | 71.54 ± 2.7
95 K, Crystal | 73.13 ± 2.7
95.54 K, Crystal | 73.71 ± 2.7
98.51 K, Crystal | 75.94 ± 2.8
100 K, Crystal | 76.86 ± 2.8
101.4 K, Crystal | 78.2 ± 2.8
104.34 K, Crystal | 80.53 ± 2.8
105 K, Crystal | 80.73 ± 2.8
107.35 K, Crystal | 82.78 ± 2.8
110 K, Crystal | 84.68 ± 2.9
110.28 K, Crystal | 84.97 ± 2.9
113.27 K, Crystal | 87.33 ± 2.9
115 K, Crystal | 88.65 ± 2.9
116.32 K, Crystal | 89.39 ± 2.9
119.31 K, Crystal | 91.73 ± 2.9
120 K, Crystal | 92.61 ± 2.9
122.25 K, Crystal | 93.79 ± 2.9
125 K, Crystal | 96.54 ± 3
125.24 K, Crystal | 96.15 ± 3
128.3 K, Crystal | 98.38 ± 3
130 K, Crystal | 100.4 ± 3
131.31 K, Crystal | 100.5 ± 3
134.27 K, Crystal | 102.7 ± 3
135 K, Crystal | 104.2 ± 3
137.29 K, Crystal | 104.8 ± 3
140 K, Crystal | 108 ± 3.1
140.38 K, Crystal | 106.6 ± 3.1
143.41 K, Crystal | 109 ± 3.1
145 K, Crystal | 111.7 ± 3.1
146.39 K, Crystal | 111.2 ± 3.1
149.42 K, Crystal | 113.3 ± 3.1
150 K, Crystal | 115.3 ± 3.2
152.51 K, Crystal | 115.5 ± 3.2
155 K, Crystal | 118.9 ± 3.2
155.56 K, Crystal | 117.7 ± 3.2
158.57 K, Crystal | 119.8 ± 3.2
160 K, Crystal | 122.4 ± 3.2
161.56 K, Crystal | 121.9 ± 3.2
164.6 K, Crystal | 123.9 ± 3.2
165 K, Crystal | 126 ± 3.3
167.69 K, Crystal | 126 ± 3.3
170 K, Crystal | 129.5 ± 3.3
170.76 K, Crystal | 129.7 ± 3.3
173.84 K, Crystal | 132.3 ± 3.3
175 K, Crystal | 133 ± 3.3
176.88 K, Crystal | 134 ± 3.3
179.99 K, Crystal | 136 ± 3.4
180 K, Crystal | 136.6 ± 3.4
183.16 K, Crystal | 138 ± 3.4
185 K, Crystal | 140.1 ± 3.4
186.3 K, Crystal | 140.4 ± 3.4
190 K, Crystal | 143.7 ± 3.4
192.5 K, Crystal | 144.2 ± 3.4
195 K, Crystal | 147.3 ± 3.5
195.64 K, Crystal | 146.3 ± 3.5
198.85 K, Crystal | 148.5 ± 3.5
200 K, Crystal | 151 ± 3.5
202.03 K, Crystal | 150.3 ± 3.5
205 K, Crystal | 154.7 ± 3.5
205.18 K, Crystal | 152.4 ± 3.5
208.33 K, Crystal | 155.1 ± 3.6
210 K, Crystal | 158.4 ± 3.6
211.45 K, Crystal | 157.1 ± 3.6
214.63 K, Crystal | 159.5 ± 3.6
215 K, Crystal | 162.1 ± 3.6
217.88 K, Crystal | 161.4 ± 3.6
220 K, Crystal | 165.9 ± 3.7
221.1 K, Crystal | 163.8 ± 3.6
224.3 K, Crystal | 165.8 ± 3.7
225 K, Crystal | 169.6 ± 3.7
227.46 K, Crystal | 168.2 ± 3.7
230 K, Crystal | 173.4 ± 3.7
230.62 K, Crystal | 170.6 ± 3.7
233.78 K, Crystal | 172.5 ± 3.7
235 K, Crystal | 177.1 ± 3.8
236.94 K, Crystal | 174 ± 3.7
240 K, Crystal | 180.8 ± 3.8
240.13 K, Crystal | 176.1 ± 3.8
243.21 K, Crystal | 178.2 ± 3.8
245 K, Crystal | 184.4 ± 3.8
246.34 K, Crystal | 180.8 ± 3.8
249.48 K, Crystal | 182.2 ± 3.8
250 K, Crystal | 188 ± 3.9
252.61 K, Crystal | 184.3 ± 3.8
255 K, Crystal | 191.5 ± 3.9
255.78 K, Crystal | 186.3 ± 3.9
258.93 K, Crystal | 188.6 ± 3.9
260 K, Crystal | 195 ± 4
262.07 K, Crystal | 191 ± 3.9
265 K, Crystal | 198.3 ± 4
265.19 K, Crystal | 193.2 ± 3.9
268.29 K, Crystal | 195.2 ± 4
270 K, Crystal | 201.6 ± 4
271.44 K, Crystal | 197.5 ± 4
274.65 K, Crystal | 199.6 ± 4
275 K, Crystal | 204.8 ± 4
277.84 K, Crystal | 201.9 ± 4
280 K, Crystal | 208 ± 4.1
281.02 K, Crystal | 204.7 ± 4
284.19 K, Crystal | 207.3 ± 4.1
285 K, Crystal | 211.1 ± 4.1
287.39 K, Crystal | 210.2 ± 4.1
290 K, Crystal | 214.2 ± 4.1
290.63 K, Crystal | 212.7 ± 4.1
293.83 K, Crystal | 215.1 ± 4.2
295 K, Crystal | 217.4 ± 4.2
297.06 K, Crystal | 217.8 ± 4.2
298.15 K, Crystal | 219.4 ± 4.2
300 K, Crystal | 220.7 ± 4.2
300.4 K, Crystal | 220.6 ± 4.2
303.7 K, Crystal | 223.9 ± 4.2
305 K, Crystal | 224.2 ± 4.2
310 K, Crystal | 227.9 ± 4.3
310.42 K, Crystal | 229.1 ± 4.3
314.19 K, Crystal | 232.7 ± 4.3
315 K, Crystal | 232.1 ± 4.3
318.33 K, Crystal | 237.1 ± 4.4
320 K, Crystal | 236.9 ± 4.4
322.65 K, Crystal | 240.3 ± 4.4
325 K, Crystal | 242.4 ± 4.4
326.89 K, Crystal | 244.7 ± 4.4
330 K, Crystal | 248.8 ± 4.5
331.21 K, Crystal | 251.3 ± 4.5
335 K, Crystal | 256.3 ± 4.6
335.57 K, Crystal | 258.1 ± 4.6
339.95 K, Crystal | 261.8 ± 4.6
340 K, Crystal | 265.3 ± 4.7
344.29 K, Crystal | 261.9 ± 4.6
345 K, Crystal | 275.9 ± 4.8
348.52 K, Crystal | 262.4 ± 4.6
350 K, Crystal | 288.6 ± 4.9
352.73 K, Crystal | 271.3 ± 4.7
355 K, Crystal | 303.6 ± 5
356.88 K, Crystal | 286.2 ± 4.9
360 K, Crystal | 321.5 ± 5.2
360.92 K, Crystal | 323.9 ± 5.2
370 K, Liquid | 420.6 ± 6.2
372.89 K, Liquid | 422 ± 6.2
375 K, Liquid | 423.4 ± 6.2
376.72 K, Liquid | 424.4 ± 6.2
380 K, Liquid | 426.2 ± 6.3
380.91 K, Liquid | 427 ± 6.3
385 K, Liquid | 429 ± 6.3
385.11 K, Liquid | 428.8 ± 6.3
390 K, Liquid | 431.8 ± 6.3
